Assay [1] deals with LTB4 synthesis in human whole blood. Kind of assay: human whole blood (HWB) assay, inhibition of LTB4 production. The format is cell-based. As to conditions: heparinized human whole blood, calcimycin 20 μM stimulation, plasma LTB4. Here is the method: The compounds of the invention are additionally tested in a human whole blood (HWB) assay to determine their ability to inhibit the synthesis of LTB4 in a cellular system. Compounds are combined with heparinized human whole blood and incubated for 15 minutes at 37° C. Calcimycin (20 μM final, prepared in phosphate-buffered saline, pH 7.4) is then added and the mixture is incubated for another 30 minutes at 37° C. The samples are centrifuged for 5 min at low speed (1500×g) and the plasma layer is removed. Plasma LTB4 concentrations are then measured using an antibody-based homogenous time-resolved fluorescence method (CisBio, Bedford, Mass.). In general, the preferred potency range (IC50) of compounds in the HWB assay is between 10 nM to 10 μM, the more preferred potency range is 10 nM to 1 μM, and the most preferred potency range is 10 nM to 100 nM.

For a further assay, the target named is T1, human LTA4 hydrolase (Homo sapiens, UniProt P09960).
T1 sequence (P09960 1-611): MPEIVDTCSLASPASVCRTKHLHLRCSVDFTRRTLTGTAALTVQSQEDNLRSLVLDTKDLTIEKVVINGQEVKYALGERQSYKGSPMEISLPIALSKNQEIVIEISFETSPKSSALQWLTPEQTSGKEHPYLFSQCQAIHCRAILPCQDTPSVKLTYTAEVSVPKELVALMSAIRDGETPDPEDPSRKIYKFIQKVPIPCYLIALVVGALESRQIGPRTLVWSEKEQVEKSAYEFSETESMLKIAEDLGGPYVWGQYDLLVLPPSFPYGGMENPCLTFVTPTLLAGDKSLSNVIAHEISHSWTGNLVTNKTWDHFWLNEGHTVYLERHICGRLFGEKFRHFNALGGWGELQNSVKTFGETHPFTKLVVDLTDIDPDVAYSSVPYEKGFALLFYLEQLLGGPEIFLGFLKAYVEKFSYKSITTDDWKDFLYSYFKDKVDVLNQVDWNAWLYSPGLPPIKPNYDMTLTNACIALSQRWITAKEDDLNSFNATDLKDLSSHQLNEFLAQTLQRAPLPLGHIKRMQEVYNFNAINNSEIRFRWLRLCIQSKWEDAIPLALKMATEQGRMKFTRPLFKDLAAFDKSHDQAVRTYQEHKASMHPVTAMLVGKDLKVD
The assay is described as follows: LTA4H Enzyme assay (peptidase, Arg-AMC cleavage). The note with it: LTA4H enzyme 1 nM, Arg-AMC substrate 50 μM, room temperature 1 h, fluorescence 380/460 nm. It is filed as biochemical. As for the experimental part:
The compounds of the invention are assessed for the ability to interact with human LTA4 hydrolase in an enzymatic assay that measures the ability of the enzyme to cleave the peptide bond of arginyl-aminomethylcoumarin (Arg-AMC). LTA4H Enzyme (1 nM final), Arg-AMC substrate (50 μM final), and compound are combined in a reaction buffer (50 mM Tris-HCl (pH 7.5), 100 mM KCl, 0.5% bovine serum albumin) at room temperature for 1 h. The formation of product is assessed by measuring the fluorescence of aminomethylcoumarin product (excitation wavelength 380 nm/emission wavelength 460 nm). In general, the preferred potency range (IC50) of compounds in the LTA4H Enzyme assay is between 0.1 nM to 10 μM, the more preferred potency range is 0.1 nM to 0.1 μM, and the most preferred potency range is 0.1 nM to 10 nM.

The results in this text go back to patent US9403830B2, “Inhibitors of leukotriene production” (Boehringer Ingelheim International GmbH, priority 2012, dated 2016).

As a reminder, the IC50 is the concentration needed to halve the response being measured. As to `CC(=O)N1CCN(CCn2ncc3cc(Oc4ccc(-c5ccn[nH]5)cn4)ccc32)CC1` [Example 94, 1-[4-(2-{5-[5-(2H-Pyrazol-3-yl)-pyridin-2-yloxy]-indazol-1-yl}-ethyl)-piperazin-1-yl]-ethanone], the values for the IC50 (in assay [1]; on human LTA4 hydrolase) were 150 nM and 1.3 nM, respectively.
Take `c1cc(-c2ccc(Oc3ccc4nc(CN5CCCCC5)ccc4c3)nc2)[nH]n1` [Example 23, 2-Piperidin-1-ylmethyl-6-[5-(2H-pyrazol-3-yl)-pyridin-2-yloxy]-quinoline]: the values for the IC50 (in assay [1]; on human LTA4 hydrolase) were 90 nM and 0.48 nM, respectively.
For `CC(=O)N1CCN(Cc2ccc3cc(Oc4ccc(-c5cc[nH]n5)cn4)ccc3n2)CC1` [Example 231, 1-(4-{6-[5-(1H-Pyrazol-3-yl)-pyridin-2-yloxy]-quinolin-2-ylmethyl}-piperazin-1-yl)-ethanone], in that order: 150 nM and 0.55 nM.
For `O=C1CC[C@@H](COc2nccc3cc(Oc4ccc(-c5ccn[nH]5)cc4)ccc23)N1` [Example 119, (S)-5-{6-[4-(2H-Pyrazol-3-yl)-phenoxy]-isoquinolin-1-yloxymethyl}-pyrrolidin-2-one], the IC50 is 2000 nM in assay [1] and 20 nM against human LTA4 hydrolase.
Taken in the same sequence, the figures for `COCC(=O)N1CCN(Cc2ccc3cc(Oc4ccc(-c5ccn[nH]5)cn4)ccc3n2)CC1` [Example 28, 2-methoxy-1-(4-{6-[5-(2H-pyrazol-3-yl)-pyridin-2-yloxy]-quinolin-2-ylmethyl}-piperazin-1-yl)-ethanone] were 150 nM and 0.87 nM.
Taken in the same sequence, the figures for `O=C1OCCCN1C1CCN(Cc2ccc3cc(Oc4ccc(-c5ccn[nH]5)cn4)ccc3n2)CC1` [Example 190, 3-(1-{6-[5-(2H-Pyrazol-3-yl)-pyridin-2-yloxy]-quinolin-2-ylmethyl}-piperidin-4-yl)-[1,3]oxazinan-2-one] were 170 nM and 0.53 nM.
In the case of `c1cc(-c2ccc(Oc3ccc4nc(CN5CCOCC5)oc4c3)cc2)[nH]n1` [Example 114, 2-morpholin-4-ylmethyl-6-[4-(2H-pyrazol-3-yl)-phenoxy]-benzoxazole], the IC50 in assay [1] worked out at 500 nM; on human LTA4 hydrolase, 0.75 nM.
Taken in the same sequence, the figures for `CC(=O)NC1CCN(CCCn2ncc3cc(Oc4ccc(-c5ccn[nH]5)cc4)ccc32)CC1` [Example 109, N-[1-(3-{5-[4-(2H-Pyrazol-3-yl)-phenoxy]-indazol-1-yl}-propyl)-piperidin-4-yl]-acetamide] were 230 nM and 0.47 nM.
For the compound `CN(C(=O)CO)C1CCN(Cc2ccc3cc(Oc4ccc(-c5ccn[nH]5)cn4)ccc3n2)CC1` [Example 33, 2-Hydroxy-N-methyl-N-(1-{6-[5-(2H-pyrazol-3-yl)-pyridin-2-yloxy]-quinolin-2-ylmethyl}-piperidin-4-yl)-acetamide], the IC50 in assay [1] was found to be 230 nM; against human LTA4 hydrolase, 0.77 nM.
In the case of `O=C1CCCN1C1CCN(CC2Cc3ccc(Oc4ccc(-c5ccn[nH]5)cc4)cc3O2)CC1` (centres unmarked) [Example 198, 1-(1-{6-[4-(2H-Pyrazol-3-yl)-phenoxy]-2,3-dihydro-benzofuran-2-ylmethyl}-piperidin-4-yl)-pyrrolidin-2-one], the results for the IC50 (in assay [1]; against human LTA4 hydrolase) were 180 nM and 0.35 nM, respectively.
For the compound `O=C(C1CCN(CC2Cc3ccc(Oc4ccc(-c5ccn[nH]5)cc4)cc3O2)CC1)N1CCOCC1` (centres unmarked) [Example 187, Morpholin-4-yl-(1-{6-[4-(2H-pyrazol-3-yl)-phenoxy]-2,3-dihydro-benzofuran-2-ylmethyl}-piperidin-4-yl)-methanone], the figures for the IC50 (in assay [1]; on human LTA4 hydrolase) were 150 nM and 0.31 nM, respectively.
With `O=C(CO)N1CC2CCC1CN2Cc1ccc2cc(Oc3ccc(-c4ccn[nH]4)cn3)ccc2n1` (centres unmarked) [Example 146, 2-Hydroxy-1-(5-{6-[5-(2H-pyrazol-3-yl)-pyridin-2-yloxy]-quinolin-2-ylmethyl}-2,5-diaza-bicyclo[2.2.2]oct-2-yl)-ethanone], the IC50 in assay [1] stood at 160 nM; at human LTA4 hydrolase it was 0.37 nM.
Regarding `c1cc(-c2ccc(Oc3ccc4[nH]c(C[C@@H]5CCCN5)nc4c3)cc2)[nH]n1` [Example 207, 5-[4-(2H-Pyrazol-3-yl)-phenoxy]-2-(S)-1-pyrrolidin-2-ylmethyl-1H-benzoimidazole], the IC50 in assay [1] was 220 nM; against human LTA4 hydrolase, 0.17 nM.
For the compound `c1cc(-c2ccc(Oc3ccc4nc(CN5CCCC5)ccc4c3)nc2)[nH]n1` [Example 19, 6-[5-(2H-Pyrazol-3-yl)-pyridin-2-yloxy]-2-pyrrolidin-1-ylmethyl-quinoline], the IC50 in assay [1] is 70 nM; against human LTA4 hydrolase, 0.24 nM.
Turning to `O=S1(=O)CCN(CCn2cc3cc(Oc4ccc(-c5ccn[nH]5)cc4)ccc3n2)CC1` [Example 176, 2-[2-(1,1-Dioxo-1-λ-6-thiomorpholin-4-yl)-ethyl]-5-[4-(2H-pyrazol-3-yl)-phenoxy]-2H-indazole], the figures for the IC50 (in assay [1]; at human LTA4 hydrolase) were 140 nM and 0.32 nM, respectively.
On to `COC(=O)c1ccc(C2CCN(Cc3nc4cc(Oc5ccc(-c6ccn[nH]6)cc5)ccc4[nH]3)CC2)cc1` [Example 151, 4-(1-{5-[4-(2H-Pyrazol-3-yl)-phenoxy]-1H-benzoimidazol-2-ylmethyl}-piperidin-4-yl)-benzoic acid methyl ester], for which the IC50 was found to be 310 nM in assay [1] and 0.4 nM against human LTA4 hydrolase.
For `CC[C@H](C)NCc1nc2cc(Oc3ccc(-c4ccn[nH]4)cc3)ccc2[nH]1` [Example 161, ((S)-sec-Butyl)-{5-[4-(2H-pyrazol-3-yl)-phenoxy]-1H-benzoimidazol-2-ylmethyl}-amine], in that order: 120 nM and 0.14 nM.
Turning to `c1cc(-c2ccc(Oc3ccc4[nH]c(CN5CCSCC5)nc4c3)cc2)[nH]n1` [Example 98, 5-[4-(2H-Pyrazol-3-yl)-phenoxy]-2-thiomorpholin-4-ylmethyl-1H-benzoimidazole], the IC50 turned out to be 160 nM in assay [1] and 0.18 nM at human LTA4 hydrolase.
For `C[C@@H]1CN(C(=O)CO)CCN1Cc1ccc2cc(Oc3ccc(-c4ccn[nH]4)cn3)ccc2n1` [Example 38, 2-Hydroxy-1-((R)-3-methyl-4-{6-[5-(2H-pyrazol-3-yl)-pyridin-2-yloxy]-quinolin-2-ylmethyl}-piperazin-1-yl)-ethanone], in that order: 280 nM and 0.76 nM.
Taken in the same sequence, the figures for `c1cc(-c2ccc(Oc3ccc4[nH]c(CNCC5CCCO5)nc4c3)cc2)[nH]n1` (centres unmarked) [Example 97, {5-[4-(2H-Pyrazol-3-yl)-phenoxy]-1H-benzoimidazol-2-ylmethyl}-(tetrahydro-furan-2-ylmethyl)-amine] were 160 nM and 0.54 nM.
For `c1cc(-c2ccc(Oc3ccc4[nH]c(CN5C[C@@H]6CC[C@@H](C5)O6)nc4c3)cc2)[nH]n1` [Example 58, (1S,5S)-3-{5-[4-(2H-Pyrazol-3-yl)-phenoxy]-1H-benzoimidazol-2-ylmethyl}-8-oxa-3-aza-bicyclo[3.2.1]octane], in that order: 120 nM and 0.13 nM.
With `CS(=O)(=O)CC(=O)N1CCN(Cc2ccc3cc(Oc4ccc(-c5ccn[nH]5)cn4)ccc3n2)CC1` [Example 39, 2-Methanesulfonyl-1-(4-{6-[5-(2H-pyrazol-3-yl)-pyridin-2-yloxy]-quinolin-2-ylmethyl}-piperazin-1-yl)-ethanone], the IC50 in assay [1] was found to be 280 nM; against human LTA4 hydrolase, 2 nM.
